# Results taken from patent US8883169B2, “Immunogen platform” (Chrontech Pharma AB, priority 2007, dated 2014).
# Tests used:
# [1] = tested on: antibodies to rNS3; test: EIA of antibodies to rNS3 after immunization with rNS3 with or without ribavirin; format: in vivo, Balb/c mice
# Method: In a first set of experiments, groups of three to five Balb/c mice (BK Universal, Uppsala, Sweden) were immunized i.p or s.c. (e.g., at the base of the tail) with 10 μg or 100 μg of recombinant hepatitis C virus non-structural 3 (rNS3) protein. […] Mice were injected with a total volume of […] per injection.
# At two and four weeks following i.p. immunization, all mice were bled by retro-orbital sampling. Serum samples were collected and analyzed for the presence of antibodies to rNS3. To determine the antibody titer, an enzyme immunoassay (EIA) was performed. (See e.g., Hultgren et al., J Gen Virol. 79:2381-91 (1998) and Hultgren et al., Clin. Diagn. Lab. Immunol. 4:630-632 (1997)). The antibody levels were recorded as the highest serum dilution giving an optical density at 405 nm more than twice that of non-immunized mice.
# At four, six and eight weeks the mice were bled and serum was separated and frozen. After completion of the study, sera were tested for the levels of antibodies to recombinant NS3, as described above. Mean antibody levels to rNS3 were compared between the groups using Student's t-test (parametric analysis) or Mann-Whitney (non-parametric analysis) and the software package StatView 4.5 (Abacus Concepts, Berkeley, Calif.). […] The values given represent end point titres to recombinant rNS3.
# The levels of antibody to the antigen were then determined by EIA.
# A second set of experiments was also performed. […] The mice were bled at week six and rNS3-specific IgG levels were determined by EIA as described previously.
# [2] = tested on: NS3-specific IgG1 and IgG2a antibodies; test: EIA of NS3-specific IgG subclasses (IgG1, IgG2a); format: in vivo, mice; details: 10 μg rNS3 with 0.1 or 1.0 mg ribavirin i.p. at weeks 0 and 4, bled at week six
# [3] = tested on: CD4+ T cells of lymph nodes; test: In vitro recall assay, CD4+ T cell proliferation by [3H]thymidine incorporation; format: cell-based, mice; details: 100 μg rNS3 mixed with 1 mg ribavirin s.c.; ten days post-immunization; 96 h of culture
# Method: This assay can be used with any ribavirin derivative or combinations of ribavirin derivatives to determine the extent that a particular vaccine formulation modulates a cellular immune response. […] The mice were sacrificed ten days post-immunization and their lymph nodes were harvested and drained. In vitro recall assays were then performed. (See e.g., Hultgren et al., J Gen Virol. 79:2381-91 (1998) and Hultgren et al., Clin. Diagn. Lab. Immunol. 4:630-632 (1997)). The amount of CD4^+ T cell proliferation was determined at 96 h of culture by the incorporation of [^3H]thymidine.
# [4] = tested on: antibodies to HBsAg; test: EIA of antibody titer to HBsAg after Engerix vaccine with or without ribavirin; format: in vivo, mice; details: 1 mg ribavirin, i.p., booster on week four, bled on week six
# Text: (Engerix, SKB). […] A booster containing the same mixture was given on week four and all mice were bled on week six.
# [5] = tested on: NS3/4A-expressing EL-4 lymphoma cells; test: In vivo inhibition of growth of NS3/4A-expressing EL-4 tumor cells; details: C57BL/6 mice immunized only once
# Method: To confirm that inhibition of tumor growth using the NS3/4A-expressing EL-4 cell line is fully dependent on an NS3/4A-specific immune response a control experiment was performed. […] Two weeks after the last immunization the mice were challenged with an s.c. injection of 10^6 native EL-4 or NS3/4A-expressing EL-4 cells (NS3/4A-EL-4). An NS3/4A-specific immune response was required for protection, since only the immunized mice were protected against growth of the NS3/4A-EL-4 cell line (FIG. 10A). Thus, this H-2^b-restricted model behaves similarly to the SP2/0 H-2^d restricted model.
# As set forth herein, the NS3/4A gene can be used as a vaccine. Although it had been determined that NS3/4A quickly primed in vivo functional CTLs, the effect of therapeutic immunization after the injection of tumor cells was analyzed next. Groups of ten C57BL/6 mice were challenged with 10^6 NS3/4A-EL-4 tumor cells. […]
# In vivo challenge of immunized mice with the NS3/4A-expressing SP2/0 myeloma or EL-4 lymphoma cell line was performed according to the method described by Encke et al., supra. […] The kinetics of the tumor growth was determined by measuring the tumor size through the skin at days six to 20. […]
# To test the therapeutic effect of the vaccines groups of mice were inoculated with the tumor cells as described above. […] The tumor growth was monitored from day 6 to day 20.
# [6] = tested on: IgE to Betv1; test: ELISA of IgE antibodies on recombinant birch protein; format: in vivo, C57/BL6 mice; details: immunized twice, bled two weeks after the second immunization
# Method: (§1) Groups of C57/BL6 mice were immunized twice with 50 μg of either plasmid containing a codon optimized NS3/4A gene, a NS3/4A-Betv1 fusion gene containing a protease cleavage site between NS3 and NS4A as well as a protease cleavage site between the NS4A and the birch antigen (SEQ ID NO: 1380), or a NS3/4A-Betv1 fusion gene containing a protease cleavage site between NS3 and NS4A, a protease cleavage site between the NS4A and the birch antigen as well as two additional protease cleavage sites within the birch antigen (SEQ ID NO: 1381) using an electroporation device. Another group of mice were immunized twice with recombinant Betv1 protein (rBetv1) in Freunds incomplete adjuvant. The two immunizations were 4 weeks apart. The mice were bled two weeks after the second immunizations.
# Dilutions of the sera were tested on ELISA plates coated with recombinant birch protein. A secondary antibody specific for IgE antibodies was used to detect bound antibody. […] The DNA constructs are thus not allergenic in that they prime a Th1 type response.
# [7] = tested on: NS3 and birch specific T cells; test: ELISpot assay of γ-IFN-secreting CTLs and T helper cells (NS3 and birch specific); format: cell-based, C57/BL6 mice; details: immunized twice, 4 weeks apart; two weeks after the second injection
# Method: as §1, with “sacrificed” for “bled”, “immunizations and the lymph nodes and spleens of each group were collected and analyzed.” for “immunizations.”
# The presence of γ-IFN-secreting CTLs and T helper (Th) cells to antigens in splenocyte or lymph node cultures were evaluated using a commercially available ELISpot assay. […] The ability of NS3-specific and birch-specific Th and CTLs to produce γ-IFN recalled by a concanavalin-A (con-A) as a positive control, media alone as a negative control, native HBcAg, recombinant HBcAg (rHBcAg), various concentrations of NS3/4A CTL peptide, various concentrations of rNS3, and various concentrations of rBetv1 was analyzed via the ELISpot.
molecule,measurement,setting,value
"NC(=O)c1ncn([C@@H]2O[C@H](CO)[C@@H](O)[C@H]2O)n1 [ribavirin, 1-β-D-ribofuranosyl-1,2,4-triazole-3-carboxamide]","effect on antibody levels, higher doses (1-10 mg) of ribavirin","[1]; 20 μg rNS3, weeks 1 and 3",enhance antibody levels at week three
same,"effect on antibody levels, low doses (<1 mg) of ribavirin","[1]; 20 μg rNS3, weeks 1 and 3",enhance antibody levels at week one but not at week three
same,antibody titer compared to formulations composed of only rNS3,"[1]; 1 mg of ribavirin and either 10 μg or 100 μg of rNS3, two weeks post-immunization",significantly greater antibody titer
same,immune response compared to that elicited without ribavirin,[1]; approximately 1 to 3 mg doses of ribavirin,more than 12 times
same,effect on the IgG subclass response in the NS3-specific immune response,[2],does not change the IgG subclass response
same,T cell proliferative response compared to 100 μg rNS3 in PBS,[3],much greater T cell proliferative response
same,response to Engerix vaccine (HBsAg and alum),[4],enhanced the response to 2 μg of an existing vaccine
"GAVQNEVTL (Artificial Peptide, NS3/4A H-2D Binding Peptide) [NS3-derived CTL peptide]",protection against growth of NS3/4A-EL-4 tumors after a single immunization,[5],not protected
"rBetv1: recombinant Betv1 protein (major Birch allergen) in Freunds incomplete adjuvant (protein, UniProt P15494 2-160, looked up, in Freund's incomplete adjuvant) Major pollen allergen Bet v …: GVFNYETETTSVIPAARLFKAFILDGDNLFPKVAPQAISSVENIEGNGGPGTIKKISFPEGFPFKYVKDRVDEVDHTNFKYNYSVIEGGPIGDTLEKISNEIKIVATPDGGSILKISNKYHTKGDHEVKAEQVKASKEMGETLLRAVESYLLAHSDAYN",priming of IgE to Betv1,[6],shows birch-specific IgE antibodies
same,priming of IFN-γ producing Betv1-specific T cells,[7],fails to do
